Results taken from patent US20060205787A1, “Methods and compositions using 4-amino-2-(3-methyl-2,6-dioxopiperidin-3-yl)-isoindole-1,3-dione” (priority 2005, published 2006).

Row | SMILES | melting point [°C]
1 | CC1(N2C(=O)c3cccc(NC(=O)CN)c3C2=O)CCC(=O)NC1=O.Cl (stereo not drawn) | 111 to 113
2 | C[C@]1(N2C(=O)c3cccc(NC(=O)CN)c3C2=O)CCC(=O)NC1=O.Cl | > 260
3 | C[C@]1(N2C(=O)c3cccc(N)c3C2=O)CCC(=O)NC1=O [Example 5.1.11, (3S)-4-Amino-2-(3-Methyl-2,6-Dioxopiperidin-3-yl)-Isoindole-1,3-Dione] | 235 to 237
